Where two headings read alike, the source gives them in different places.
Key:
SOS1 = SOS1 (Homo sapiens (Human), UniProt Q07889); experiment: Ras-SOS interaction assay (HTRF); format: biochemical
[1] = system: NCI-H1975 cells (EGFR T790M L858R); experiment: EGFR-SOS cellular inhibition assay (CellTiter-Glo, 3D); format: cell-based; conditions: Homo sapiens
[2] = system: MIA PaCa-2 cells (K-Ras G12C); experiment: Ras-SOS cellular growth inhibition assay (CellTiter-Glo, 3D); format: cell-based; conditions: Homo sapiens
Method: MIA PaCa-2 (ATCC CRL-1420) and NCI-H1792 (ATCC CRL-5895) cell lines comprise a G12C mutation can be used to assess Ras cellular signaling in vitro, e.g., in response to a subject compound of the present disclosure. […] Cell culture medium (comprising, for example, MIA PaCa-2 cells) is prepared with DMEM/Ham's F12 (e.g., with stable Glutamine, 10% FCS, and 2.5% Horse Serum. NCI-H1792 culture medium is prepared with RPMI 1640 (e.g., with stable Glutamine) and 10% FCS. A CellTiter-Glo (CTG) luminescent based assay (Promega) is used to assess growth of the cells, as a measurement of the ability of the compounds herein to inhibit Ras signaling in the cells. The cells (e.g., 800-1200 per well) are seeded in their respective culture medium in standard tissue culture-treated ultra-low attachment surface 96-well format plates (Corning Costar #3474). The day after plating, cells are treated with a dilution series (e.g., a 9 point 3-fold dilution series) of the compounds herein (e.g., approximately 125 μl final volume per well). Cell viability can be monitored (e.g., approximately 5 days later) according to the manufacturer's recommended instructions, where the CellTiter-Glo reagent is added (e.g., approximately 65 μl), vigorously mixed, covered, and placed on a plate shaker (e.g., approximately for 20 min) to ensure sufficient cell lysis prior to assessment of luminescent signal. The IC50 values are determined using the four-parameter fit. The resulting IC50 value is a measurement of the ability of the compounds herein to reduce cell growth of Ras-driven cells as representative tumor cells.

[3] = K-RasG13D utilized, read-out: IC50 inhibition of SOS
[4] = K-RasG13D, read-out: IC50 value against SOS1
[5] = 120 h, NCI-H1975, 3D proliferation, about 5 days, read-out: Bio-Cell-Prolif-3D (H1975 IC50)
[6] = MIA PaCa-2, 120 h, MIA PaCa-2, 3D proliferation, about 5 days, read-out: Bio-Cell-Prolif-3D (MiaPaca2 IC50)
[7] = MIA PaCa-2, MIA PaCa-2, read-out: IC50 in inhibiting MIA PaCa-2 cell growth
[8] = NCI-H1975, EGFR T790M L858R, read-out: IC50 in inhibiting growth of NCI-H1975 cell line

Chain of SOS1 (Q07889 564-1049): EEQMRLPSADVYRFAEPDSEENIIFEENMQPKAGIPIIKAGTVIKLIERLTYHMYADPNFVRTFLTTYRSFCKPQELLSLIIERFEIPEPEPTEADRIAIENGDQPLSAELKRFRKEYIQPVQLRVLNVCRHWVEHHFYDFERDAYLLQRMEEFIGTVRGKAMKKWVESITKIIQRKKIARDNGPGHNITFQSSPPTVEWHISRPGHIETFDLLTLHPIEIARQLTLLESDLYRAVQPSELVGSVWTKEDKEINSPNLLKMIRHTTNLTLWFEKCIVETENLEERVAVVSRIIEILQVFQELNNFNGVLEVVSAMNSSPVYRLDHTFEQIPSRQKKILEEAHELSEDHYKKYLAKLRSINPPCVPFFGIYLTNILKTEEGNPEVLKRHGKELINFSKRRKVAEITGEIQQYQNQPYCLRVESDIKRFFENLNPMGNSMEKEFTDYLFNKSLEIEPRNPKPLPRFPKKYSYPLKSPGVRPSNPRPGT

| SMILES | IC50 (SOS1; [3]) | IC50 (SOS1; [4]) | IC50 [1, 5] | IC50 [2, 6] | IC50 [2, 7] | IC50 [1, 8] |
| --- | --- | --- | --- | --- | --- | --- |
| CCN1CCN(c2cc3c(N[C@H](C)c4cccc(C(F)F)c4F)nc(C)nc3nc2OC)CC1 [Compound 115, (R)-N-(1-(3-(difluoromethyl)-2-fluorophenyl)ethyl)-6-(4-ethylpiperazin-1-yl)-7-methoxy-2-methylpyrido[2,3-d]pyrimidin-4-amine] | < 100 nM | < 50 nM | ≤ 1000 nM | ≤ 1000 nM | < 500 nM |  |
| COc1nc2nc(C)nc(N[C@H](C)c3cccc(C(F)F)c3F)c2cc1C1CCN(C(=O)NC2COC2)CC1 [Compound 116, (R)-4-(4-((1-(3-(difluoromethyl)-2-fluorophenyl)ethyl)amino)-7-methoxy-2-methylpyrido[2,3-d]pyrimidin-6-yl)-N-(oxetan-3-yl)piperidine-1-carboxamide] |  | < 50 nM | ≤ 1000 nM | ≤ 1000 nM |  |  |
| COc1nc2nc(C)nc(N[C@H](C)c3cccc(C(F)F)c3F)c2cc1C1(C#N)CCN(C(C)C)CC1 [Compound 117, (R)-4-(4-((1-(3-(difluoromethyl)-2-fluorophenyl)ethyl)amino)-7-methoxy-2-methylpyrido[2,3-d]pyrimidin-6-yl)-1-isopropylpiperidine-4-carbonitrile] | < 100 nM | < 50 nM | ≤ 1000 nM | ≤ 1000 nM |  | < 500 nM |
| CCN1CCC(c2cc3c(N[C@H](C)c4cccc(C(F)F)c4F)nc(C)nc3nc2OC)CC1 [Compound 119, (R)-N-(1-(3-(difluoromethyl)-2-fluorophenyl)ethyl)-6-(1-ethylpiperidin-4-yl)-7-methoxy-2-methylpyrido[2,3-d]pyrimidin-4-amine] | < 100 nM | < 50 nM | ≤ 1000 nM | ≤ 1000 nM | < 500 nM | < 500 nM |
| COc1nc2nc(C)nc(N[C@H](C)c3cccc(C(F)F)c3F)c2cc1N1CCN(C)CC1 [Compound 123, (R)-N-(1-(3-(difluoromethyl)-2-fluorophenyl)ethyl)-7-methoxy-2-methyl-6-(4-methylpiperazin-1-yl)pyrido[2,3-d] pyrimidin-4-amine] |  | < 50 nM | ≤ 1000 nM | ≤ 1000 nM | < 500 nM |  |
| COc1nc2nc(C)nc(N[C@H](C)c3cccc(C(F)F)c3F)c2cc1[C@H]1C[C@@H](NC(=O)C2COC2)C1 [Compound 125, N-((1S,3s)-3-(4-(((R)-1-(3-(difluoromethyl)-2-fluorophenyl)ethyl)amino)-7-methoxy-2-methylpyrido[2,3-d]pyrimidin-6-yl)cyclobutyl)oxetane-3-carboxamide] |  | < 50 nM | ≤ 1000 nM | ≤ 1000 nM | < 500 nM | < 500 nM |
| COc1nc2nc(C)nc(N[C@H](C)c3cccc(C(F)F)c3F)c2cc1C1(C#N)CCS(=O)(=O)CC1 [Compound 126, (R)-4-(4-((1-(3-(difluoromethyl)-2-fluorophenyl)ethyl)amino)-7-methoxy-2-methylpyrido[2,3-d]pyrimidin-6-yl)tetrahydro-2H-thiopyran-4-carbonitrile 1,1-dioxide] | < 100 nM | < 50 nM | ≤ 1000 nM | ≤ 1000 nM |  | < 500 nM |
| COc1nc2nc(C)nc(N[C@H](C)c3cccc(C(F)F)c3F)c2cc1C1=CCS(=O)(=O)CC1 [Compound 127, (R)-4-(4-((1-(3-(difluoromethyl)-2-fluorophenyl)ethyl)amino)-7-methoxy-2-methylpyrido[2,3-d]pyrimidin-6-yl)-3,6-dihydro-2H-thiopyran 1,1-dioxide] | < 100 nM | < 50 nM | ≤ 1000 nM | ≤ 1000 nM | < 500 nM | < 500 nM |
| COc1nc2nc(C)nc(N[C@H](C)c3cccc(C(F)F)c3F)c2cc1C1(C#N)CCN(C)CC1 [Compound 128, (R)-4-(4-((1-(3-(difluoromethyl)-2-fluorophenyl)ethyl)amino)-7-methoxy-2-methylpyrido[2,3-d]pyrimidin-6-yl)-1-methylpiperidine-4-carbonitrile] | < 100 nM | < 50 nM | ≤ 1000 nM | ≤ 1000 nM | < 500 nM |  |
| CNCCN1CCC(c2cc3c(N[C@H](C)c4cccc(C(F)F)c4F)nc(C)nc3nc2OC)CC1 [Compound 129, (R)-N-(1-(3-(difluoromethyl)-2-fluorophenyl)ethyl)-7-methoxy-2-methyl-6-(1-(2-(methyl-12-azaneyl)ethyl)piperidin-4-yl)pyrido[2,3-d]pyrimidin-4-amine] | < 100 nM | < 50 nM | 1000 to 10000 nM | ≤ 1000 nM |  |  |
| COc1nc2nc(C)nc(N[C@H](C)c3cccc(C(F)F)c3F)c2cc1C1CCN(CCO)CC1 [Compound 130, (R)-2-(4-(4-((1-(3-(difluoromethyl)-2-fluorophenyl)ethyl)amino)-7-methoxy-2-methylpyrido[2,3-d]pyrimidin-6-yl)piperidin-1-yl)ethan-1-ol] | < 100 nM | < 50 nM | ≤ 1000 nM | ≤ 1000 nM | < 500 nM | < 500 nM |
| Cc1nc(N[C@H](C)c2cccc(C(F)F)c2F)c2cc(S(=O)(=O)C3CCN(C)CC3)c(Cl)nc2n1 [Compound 132, (R)-7-chloro-N-(1-(3-(difluoromethyl)-2-fluorophenyl)ethyl)-2-methyl-6-((1-methylpiperidin-4-yl)sulfonyl)pyrido[2,3-d]pyrimidin-4-amine] |  | < 50 nM | ≤ 1000 nM | ≤ 1000 nM | < 500 nM | < 500 nM |
| COc1nc2nc(C)nc(N[C@H](C)c3cccc(C(F)F)c3F)c2cc1S(=O)(=O)C1CCN(C)CC1 [Compound 133, (R)-N-(1-(3-(difluoromethyl)-2-fluorophenyl)ethyl)-7-methoxy-2-methyl-6-((1-methylpiperidin-4-yl)sulfonyl)pyrido[2,3-d]pyrimidin-4-amine] | < 100 nM | < 50 nM | ≤ 1000 nM | ≤ 1000 nM | < 500 nM | < 500 nM |
| COc1nc2nc(C)nc(N[C@H](C)c3cccc(C(F)F)c3F)c2cc1[C@@H]1CCCN(C)C1 [Compound 134, N-((R)-1-(3-(difluoromethyl)-2-fluorophenyl)ethyl)-7-methoxy-2-methyl-6-((S)-1-methylpiperidin-3-yl)pyrido[2,3-d]pyrimidin-4-amine] | < 100 nM | < 50 nM | ≤ 1000 nM | ≤ 1000 nM | < 500 nM | < 500 nM |
| COc1nc2nc(C)nc(N[C@H](C)c3cccc(C(F)F)c3F)c2cc1[C@H]1CCCN(C)C1 [Compound 135, N-((R)-1-(3-(difluoromethyl)-2-fluorophenyl)ethyl)-7-methoxy-2-methyl-6-((R)-1-methylpiperidin-3-yl)pyrido[2,3-d] pyrimidin-4-amine] | < 100 nM | < 50 nM | ≤ 1000 nM | ≤ 1000 nM |  |  |
| CNc1nc2nc(C)nc(N[C@H](C)c3cccc(C(F)F)c3F)c2cc1C1CCS(=O)(=O)CC1 [Compound 136, (R)-4-(4-((1-(3-(difluoromethyl)-2-fluorophenyl)ethyl)amino)-2-methyl-7-(methylamino)pyrido[2,3-d]pyrimidin-6-yl)tetrahydro-2H-thiopyran 1,1-dioxide] | < 100 nM | < 50 nM | ≤ 1000 nM | ≤ 1000 nM | < 500 nM | < 500 nM |
| Cc1nc(N[C@H](C)c2cccc(C(F)F)c2F)c2cc(C3CCS(=O)(=O)CC3)c(OCCO)nc2n1 [Compound 137, (R)-4-(4-((1-(3-(difluoromethyl)-2-fluorophenyl)ethyl)amino)-7-(2-hydroxyethoxy)-2-methylpyrido[2,3-d]pyrimidin-6-yl)tetrahydro-2H-thiopyran 1,1-dioxide] | < 100 nM | < 50 nM | ≤ 1000 nM | ≤ 1000 nM | < 500 nM |  |
| Cc1nc(N[C@H](C)c2cccc(C(F)F)c2F)c2cc(S(=O)(=O)C3CCN(C)CC3)c(C)nc2n1 [Compound 138, (R)-N-(1-(3-(difluoromethyl)-2-fluorophenyl)ethyl)-2,7-dimethyl-6-((1-methylpiperidin-4-yl)sulfonyl)pyrido[2,3-d]pyrimidin-4-amine] |  | < 50 nM | ≤ 1000 nM | ≤ 1000 nM | < 500 nM | < 500 nM |

— patent US11648254B2 (Kumquat Biosciences Inc., priority 2021, dated 2023)
